Assay results from patent publication US5298502A, “Method and composition for photodynamic treatment and detection of tumors” (priority 1991, dated 1994).

Key:
HeLa cells [1] = test: Tetrapyrrole accumulation in treated HeLa cells (Example 1); type: cell-based, human; conditions: 3 days in the dark
Method: HeLa cells (a human tumor cell line commonly employed for tumor research and obtained from the American Type Culture Collection), in logarithmic growth phase (having been cultured at 37° C. for five days in one-liter Falcon tissue culture flasks), were washed in phosphate buffered saline (PBS). A 0.25% solution of trypsin in PBS (2 mL) was added, and, after several minutes, the cells were gently removed from the flask and placed into 110 mL of a 25 mM solution of Hepes in Minimum Essential Medium (MEM) supplemented with 10% v/v inactivated calf serum, 1.1 mL of a 200 mM solution of glutamine in 0.85% saline solution, and 11,000 units of penicillin/11,000 mcg streptomycin.
Then, 5.0 mL aliquots of the resulting resuspended cell culture were each placed into a 50 mL Falcon tissue culture flask and (except for the control) mixed with the treating agent. The aliquots were then incubated in the dark at 37° C. for three days. The cells were then removed and extracted under green light in the following manner:
Cells were removed from the bottom of the flask with the addition of 0.8 mL of a 0.25% solution of trypsin in PBS. After 1 hour of incubation in the dark, cells and medium were removed from the flasks, placed into round bottom centrifuge tubes, and then subjected to two rounds of freeze-thaw conditions to disrupt the cells and allow for extraction.
Ten mL of basic acetone (90% acetone:10% of 0.1 N NH4 OH) was then added to each tube, and the tubes were centrifuged to remove protein and cell debris. Five mL of water was added to the supernatant, followed by 0.5 mL of a saturated aqueous solution of NaCl. The pH was then adjusted to 6.8 by the dropwise addition of 2 M KH2 PO4. The aqueous acetone extract was then loaded onto a C8 Baker Prep column. The columns were dried and then washed with 2 mL of water. The tetrapyrroles were eluted with 2×1.5 mL volumes of 90/10 CH3 OH/H2 O. Extracts were then quantified on a spectrofluorometer.
Agent A was supplied as a filter-sterilized 250 mM solution in water, pH 6.5. Agents B, C, D, and E were supplied as 50 mM solutions in acetone. Acetone was also added to the control to provide a concentration of 0.2% v/v therein. The amounts of the agents added to the cell cultures were such as to give the concentrations specified in the Table 1 below. The amounts of the tetrapyrrole protoporphyrin IX ("Proto IX") produced are shown in that Table.

HeLa cells [2] = test: Growth inhibition and Proto IX accumulation in HeLa cells (Example 2); type: cell-based, human; conditions: for Amount of Proto IX: average amount per 10^6 cells; for inhibition at 100 µM: 4 days in the dark
Method: HeLa cells, in logarithmic growth phase having been cultured for 6 days in six one-liter Falcon tissue culture flasks at 37° C.), were washed in phosphate buffered saline (PBS). A 0.25% solution of trypsin in PBS was added, and, after several minutes, the cells were gently removed and placed into 110 mL of a 25 mM solution of Hepes in Minimum Essential Medium (MEM), supplemented with 10% v/v inactivated calf serum, 1.1 mL of a 200 mM solution of glutamine in 0.85% saline solution, and 11,000 units of penicillin/11,000 mcg streptomycin.
Aliquots (5.0 mL each) of the resuspended cell culture were placed into 50 mL Falcon tissue culture flasks, with or without herbicide, and incubated in the dark at 37° C. for 4 days, the herbicide being added in dilute acetone solution as in Example 1. Acetone was also added to the controls to provide a concentration of acetone of 0.2% v/v therein. The amount of herbicide was such as to provide the concentrations specified in Table 2 below.
Extraction: The media from each of the flasks were placed in glass round bottom tubes, while the cells adhering to the bottom of the flasks were loosened by the addition of 0.5 mL of a 0.25% solution of trypsin in PBS, and after several minutes at 37° C., then washed from the flasks and recombined with their media. Aliquots of 100 μL were then removed from each cell suspension to determine cell density. The remaining 5.4 mL of cell suspension was then sonified for 30 minutes to disrupt the cells.
Ten mL of basic acetone (90% acetone:10% 0.1 N NH4 OH) was then added to each tube, and the tubes were centrifuged to remove protein and cell debris. Five mL of water was added to the supernatant, followed by 0.5 mL of a saturated aqueous solution of NaCl. The pH was then adjusted to 6.8 by the dropwise addition of 2 M KH2 PO4. The aqueous acetone extract was then loaded onto a C8 Baker Prep column. The columns were dried and then washed with 2 mL of water. The tetrapyrroles were eluted with 3 mL of 90/10 CH3 OH/H2 O. As in Example 1, all these extraction procedures were carried out substantially entirely under non-protoporphrin IX-exciting light (e.g. green light) or in the dark (e.g. in opaque covered containers). The fluorescence of the extracts was then determined on a SPEX spectrofluorometer. Protoporphyrin IX ("Proto IX") accumulation was quantified utilizing predetermined extinction coefficients.

HeLa cells [3] = test: Proto IX in HeLa cells and culture medium, cell growth observations (Example 8); type: cell-based, human; conditions: 100 μM agent, compared to the control; for inhibition at 100 µM: Homo sapiens, HeLa, read-out: inhibiting effect on cell growth (rough observations)
Method: In a manner similar to Examples 1 and 2, cultures of HeLa cells were incubated in the presence of 100 μM of various treating agents, listed below. The agent was added in dilute solution in dimethylsulfoxide (DMSO),and the controls contained 0.2% DMSO v/v. After such incubation the culture medium was poured off, removing it from the cells, the cells were loosened from the culture flasks by addition of 0.25% W/v trypsin Which remained in contact With the cells for 20 minutes at 37° C., after which a fluorometric medium was added to the flask. The fluorometric medium was the same as that described in Example 7 except that its pH was 6.5; this medium also acted as an extractant. The resulting extract was analyzed for proto IX content. The separated culture medium was also analyzed fluorometrically for Proto IX content. The pairs of percentages given, next to each treating agent, indicate the amount of Proto IX produced in the presence of that treating agent relative to the amount produced by the control in the same experiment; the first number of each pair relates to the concentration of Proto IX in the culture medium and the second number relates to the concentration in the cells. [drawing 12]

[4] = test system: DBA/2 Ha mice with SMT-F subcutaneous tumors; test: Proto IX content of tissues of tumor-bearing mice fed the agent (Example 6); type: in vivo; conditions: for concentration of Proto IX in tissue, Adrenal / concentration of Proto IX in tissue, Intestine / concentration of Proto IX in tissue, Kidneys / concentration of Proto IX in tissue, Liver / concentration of Proto IX in tissue, Tumor / Proto IX Mean Cps per gram, Intestine: 2000 ppm in feed; for Proto IX Mean Cps per gram, Adrenal / Proto IX Mean Cps per gram, Kidneys / Proto IX Mean Cps per gram, Liver / Proto IX Mean Cps per gram, Tumor / Weight of Tumor as excised: 2000 ppm in feed Days 2-10, sacrificed Day 10 (6j Day 7); for Proto IX Mean Cps per gram, Intestine: samples diluted with 3 parts basic acetone to one part sample
Method: In this Example the enzyme-inhibiting agents were added to the feed of tumor-bearing mice; for some of the mice, used as a control, no agent was added to the feed. The mice were then sacrificed and their kidneys, intestines, adrenal glands, liver and tumor were removed and analyzed for their content of Proto IX. The following enzyme-inhibiting agents were employed: [drawing 10]
More particularly, the mice were DBA/2 Ha mice which had been injected with SMT-F subcutaneous tumors on Day 0 in the right shoulder. The mice, individually housed, received untreated Purina Rodent Chow 5001 Mash on Day 1; thereafter on Days 2 through 10 the mice received the same Mash treated with 2000 ppm of the inhibiting agent being tested (or, for the controls, the same untreated Mash). The treatment of the Mash was effected by blending it with a small amount of an acetone solution of the agent to be tested. The mice were then sacrificed on Day 10, except for the mouse treated with the agent designated as 6j; the latter was sacrificed on Day 7. The tissues were refrigerated at 4° C. overnight, then blotted dry, and the fresh weight of each tissue sample was recorded. The tissues were then homogenized in 5 mL, or lo mL in the cases of intestines and liver, of acetone-0.1 N NH4 OH (9:I, v/v). The homogenates were then centrifuged at 1500 g and the supernatants were analyzed on a SPEX FAII2 spectrofluorometer; excitation 400 nm, emission 630 nm wavelengths, the optima for Proto IX. Proto IX accumulation was determined as CPS (fluorescent counts per second emitted) per gram of tissue. The results are tabulated below (results are averages for two mice for each treatment, except for treatments with agents 6f, 6h, 6i and 6j in each of which only one mouse was treated): […]

[5] = Homo sapiens, HeLa, 96 h, 100 μM agent

## CCOC(=O)C(C)Oc1ccc(Oc2cc(-n3nc(C)n(C(F)F)c3=O)c(F)cc2Cl)cc1 (stereo not shown) [Agent C]
HeLa cells [1]; 100 μM agent
  Amount of Proto IX: 3.5 pmol
  Fluorescence Emission cps 400/630: 33477 cps
HeLa cells [2]; 1 μM agent
  Amount of Proto IX: 0.19 pmol
HeLa cells [2]; 10 μM agent
  Amount of Proto IX: 0.57 pmol
HeLa cells [2]; 100 μM agent
  Amount of Proto IX: 4.41 pmol
HeLa cells [2]; Homo sapiens, HeLa, 96 h, 1 μM agent, percent of control, read-out: Relative % proto IX
  activity at 1 µM: 86%
HeLa cells [2]; Homo sapiens, HeLa, 96 h, 10 μM agent, percent of control, read-out: Relative % proto IX
  activity at 10 µM: 259%
HeLa cells [2]; [5]
  inhibition at 100 µM: 52%
HeLa cells [2]; Homo sapiens, HeLa, 1 μM agent, negative values indicate that growth occurred
  inhibition at 1 µM: -26%
HeLa cells [2]; Homo sapiens, HeLa, 10 μM agent, negative values indicate that growth occurred
  inhibition at 10 µM: -15%

## CCS(=O)(=O)Nc1cc(-n2nnn(-c3ccc([N+](=O)[O-])cc3)c2=O)c(F)cc1Cl [Compound 8af]
HeLa cells [3]
  effect on cell growth (rough observations): lethal

## COc1ccc(OC)c(CNC(=O)c2ccc(Cl)cc2)c1 [Compound 8aj]
HeLa cells [3]
  inhibition at 100 µM: 25%

## CCOC(=O)C(C)OC(=O)c1cc(Oc2ccc(C(F)(F)F)cc2Cl)ccc1[N+](=O)[O-] (stereo not shown) [Compound 8an]
HeLa cells [3]
  inhibition at 100 µM: 50%

## O=C(Nc1ccc(Cl)cc1)C(F)(F)Sc1ccccc1 [Compound 8ak]
HeLa cells [3]
  inhibition at 100 µM: 50%

## C#CCOc1cc(N=C2SCC(=O)N2C)c(F)cc1Cl [Compound 8ah]
HeLa cells [3]
  effect on cell growth (rough observations): lethal

## Cc1nc2ccccc2n1Cc1c(F)c(F)c(F)c(F)c1F [Compound 8ad]
HeLa cells [3]
  effect on cell growth (rough observations): lethal

## COC(=O)c1cc(Oc2ccc(Cl)cc2Cl)ccc1[N+](=O)[O-] [Compound 8ap]
HeLa cells [3]
  inhibition at 100 µM: 50%

## CC(C)Oc1cc(-n2nc(C(C)(C)C)oc2=O)c(Cl)cc1Cl [Agent F]
HeLa cells [2]; 100 μM agent
  Amount of Proto IX: 2.71 pmol
HeLa cells [2]; [5]
  inhibition at 100 µM: 106%

## C#CCOc1cc(-n2ncc(=O)n(C)c2=O)c(F)cc1Cl [Compound 8t]
HeLa cells [3]
  inhibition at 100 µM: 50%

## NCC(=O)CCC(=O)O [Agent A, 5-amino levulinic acid, reference compound]
HeLa cells [1]; 5000 μM agent
  Amount of Proto IX: 4.2 pmol
  Fluorescence Emission cps 400/630: 41842 cps

## O=[N+]([O-])c1ccc(Oc2ccc(Cl)cc2Cl)cc1 [Compound 8ar]
HeLa cells [3]
  inhibition at 100 µM: 25%

## C#CCOc1cc(N2N=CCN(C)C2=O)c(F)cc1Cl [Compound 8u]
HeLa cells [3]
  inhibition at 100 µM: 60%

## CC(C)Oc1cc(-n2oc(=O)n(C)c2=O)c(F)cc1Cl [Compound 8ai]
HeLa cells [3]
  inhibition at 100 µM: 50%

## Cn1c(=O)cnn(-c2ccc(Cl)cc2F)c1=O [Agent E]
HeLa cells [1]; 100 μM agent
  Amount of Proto IX: 0.9 pmol
  Fluorescence Emission cps 400/630: 8967 cps

## CC1(C)Cc2c(Br)ccc(OC(=O)N3CCCC3)c2O1 [Compound 8ae]
HeLa cells [3]
  effect on cell growth (rough observations): lethal

## C#CCOc1cc(N2C(=O)C(C)=C(C)C2=O)c(F)cc1Cl [Compound 8ab]
HeLa cells [3]
  effect on cell growth (rough observations): lethal

## CC(C)Oc1cc(-n2nc(C(C)(C)C)oc2=O)c(Cl)cc1Cl [Agent 6d]
[4]
  concentration of Proto IX in tissue, Adrenal: 4 ug of Proto IX per gram of tis
  concentration of Proto IX in tissue, Intestine: 51 ug of Proto IX per gram of tis
  concentration of Proto IX in tissue, Kidneys: 117 ug of Proto IX per gram of tis
  concentration of Proto IX in tissue, Liver: 14 ug of Proto IX per gram of tis
  concentration of Proto IX in tissue, Tumor: 18 ug of Proto IX per gram of tis
  Proto IX Mean Cps per gram, Adrenal: 443 Cps per gram × 10^3
  Proto IX Mean Cps per gram, Kidneys: 12865 Cps per gram × 10^3
  Proto IX Mean Cps per gram, Liver: 1581 Cps per gram × 10^3
  Proto IX Mean Cps per gram, Tumor: 2006 Cps per gram × 10^3
  Weight of Tumor as excised: 294 mg
  Proto IX Mean Cps per gram, Intestine: 5565 Cps per gram × 10^3

## CCOC(=O)C(C)Oc1ccc(Cn2c(C)nn(-c3cc(OC)c(Cl)cc3F)c2=O)cc1 (stereo not shown) [Compound 8ag]
HeLa cells [3]
  inhibition at 100 µM: 25%

## C#CCOc1cc(N2C(=O)C3CCCCC3C2=O)c(F)cc1Cl (stereo not shown) [Compound 8ac]
HeLa cells [3]
  inhibition at 100 µM: 50%

## C#CCN1C(=O)COc2cc(F)c(-n3ncc(=O)n(C)c3=O)cc21 [Agent D]
HeLa cells [1]; 100 μM agent
  Amount of Proto IX: 1.1 pmol
  Fluorescence Emission cps 400/630: 10551 cps

## CC(C)Oc1cc(-n2c(=O)n3n(c2=S)CCCC3)c(F)cc1Cl [Agent 6e]
[4]
  concentration of Proto IX in tissue, Adrenal: 12 ug of Proto IX per gram of tis
  concentration of Proto IX in tissue, Intestine: 19 ug of Proto IX per gram of tis
  concentration of Proto IX in tissue, Kidneys: 8 ug of Proto IX per gram of tis
  concentration of Proto IX in tissue, Liver: 8 ug of Proto IX per gram of tis
  concentration of Proto IX in tissue, Tumor: 8 ug of Proto IX per gram of tis
  Proto IX Mean Cps per gram, Adrenal: 1331 Cps per gram × 10^3
  Proto IX Mean Cps per gram, Kidneys: 915 Cps per gram × 10^3
  Proto IX Mean Cps per gram, Liver: 876 Cps per gram × 10^3
  Proto IX Mean Cps per gram, Tumor: 837 Cps per gram × 10^3
  Weight of Tumor as excised: 165 mg
  Proto IX Mean Cps per gram, Intestine: 2069 Cps per gram × 10^3
